We go through 16 compounds from patent US20260317319A1, “NOVEL ERGOLINES AND METHODS OF TREATING MOOD DISORDERS” (Gilgamesh Pharma Inc., priority 2023, published 2026).

pEC50, pKi: −log10 of the molar value. Several values for one entry are separate records, joined by “and”; a condition that tells them apart may be missing. Equal values may be shown once. Read-outs that look alike come from different tables or passages of the source. Bounds are passed on as bounds.

Series [1] can be described thus: in vitro. Particulars: mouse, microsomes, MLM (male CD-1) 0.50 mg/mL, NADPH 1 mM, 1 μM compound, pH 7.4, 37° C., 60 min; for microsomal CLint: read-out: Intrinsic clearance (Clint); for half-life: read-out: half-life (t1/2). It is filed as in vitro ADME, mouse. An excerpt: MLM Stability Pooled MLM from male CD-1 mice (BIOIVT M00501) were used.
Series [2] is described as follows: in vitro. The format is in vitro ADME, rat. The following applies: rat, microsomes, RLM (male Sprague-Dawley) 0.50 mg/mL, NADPH 1 mM, 1 μM compound, pH 7.4, 37° C., 60 min; for microsomal CLint: read-out: Intrinsic clearance (Clint); for half-life: read-out: half-life (t1/2). An excerpt: RLM Stability Pooled RLM from male Sprague-Dawley rats (Xenotech R1000) were used.

Series [3] in a line: in vitro. The format is in vitro ADME, human. The following applies: human, microsomes, HLM 0.50 mg/mL, NADPH 1 mM, 1 μM compound, pH 7.4, 37° C., 60 min; for microsomal CLint: read-out: Intrinsic clearance (Clint); for half-life: read-out: half-life (t1/2).
The target in series [4] is T1, 5-HT2A receptor (Homo sapiens, UniProt P28223). In words: biochemical. The format is binding. Also noted: expressed in transfected cells; host or cells: HEK293, stably transfected. The following applies: [3H]ketanserin 1 nM; HEK293 stable cell line; 1 h, 25 °C. The protocol:
Affinity of the test compounds for the 5-HT2A receptor was determined in radioligand binding experiments with [^3H]ketanserin by WuXi AppTec (Hong Kong) Limited, using methods adapted from the literature and under conditions described in Table 1.

For series [5], the target named is T1, 5-HT2A receptor. The experiment in a line: cell-based. It is filed as cell-based. Also on record: expressed in transfected cells; host or cells: HEK293, stably transfected. The following applies: Ca2+ flux; for pEC50: HEK293. The protocol: (§1) Functional Assays at 5-HT2A, 5-HT2B, and 5-HT1A. Agonist activity at 5-HT2A, 5-HT2B, 5HT2C and 5-HT1A receptors was determined using a FLIPR Ca^2+ flux assay at WuXi AppTec (Hong Kong) Limited according to their standard protocols. Briefly, stably transfected cells expressing the receptor of interest and Gα15 in the case of 5-HT1A (HEK293 for 5-HT2A and 5-HT2B; CHO cells for 5-HT1A) were grown and plated in a 384 well plate and incubated at 37° C. and 5% CO2 overnight. A solution of 250 mM probenecid in 1 mL FLIPR assay buffer was prepared fresh. This was combined with a fluorescent dye (Fluo-4 Direct™) to make a final assay concentration of 2.5 mM. […] The fluorescent dye was then added to the assay plate along with assay buffer to a final volume of 40 μL. The cell plate was incubated for 50 min at 37° C. and 5% CO2 and placed into the FLIPR Tetra along with the compound plate. 10 μL of references and compounds were then transferred from the compound plate into the cell plate and the fluorescent signal was read.
In general terms: Calcium assays in cells follow changes in intracellular calcium, usually with a dye or a luminescent sensor.

For a further series, the target named is T2, 5-HT1A receptor (Homo sapiens, UniProt P08908).
T2 construct: expressed in transfected cells; host or cells: CHO cells, stably transfected
T2 sequence (P08908 1-422): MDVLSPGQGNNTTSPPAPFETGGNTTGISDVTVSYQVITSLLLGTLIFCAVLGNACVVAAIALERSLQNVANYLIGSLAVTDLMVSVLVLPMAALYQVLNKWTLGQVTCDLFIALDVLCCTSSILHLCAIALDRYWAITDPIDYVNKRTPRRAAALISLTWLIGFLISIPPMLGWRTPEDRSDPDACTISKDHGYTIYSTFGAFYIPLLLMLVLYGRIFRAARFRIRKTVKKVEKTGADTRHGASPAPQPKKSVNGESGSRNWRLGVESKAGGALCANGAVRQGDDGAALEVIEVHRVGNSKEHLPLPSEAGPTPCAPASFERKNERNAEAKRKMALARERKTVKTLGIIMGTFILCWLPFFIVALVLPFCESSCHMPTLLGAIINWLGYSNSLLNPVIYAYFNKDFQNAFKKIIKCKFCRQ
The experiment in a line: cell-based. The following applies: agonist, Ca2+ flux, CHO cells with Gα15, max dose. Here is the method:
as §1

T1 sequence (P28223 whole entry): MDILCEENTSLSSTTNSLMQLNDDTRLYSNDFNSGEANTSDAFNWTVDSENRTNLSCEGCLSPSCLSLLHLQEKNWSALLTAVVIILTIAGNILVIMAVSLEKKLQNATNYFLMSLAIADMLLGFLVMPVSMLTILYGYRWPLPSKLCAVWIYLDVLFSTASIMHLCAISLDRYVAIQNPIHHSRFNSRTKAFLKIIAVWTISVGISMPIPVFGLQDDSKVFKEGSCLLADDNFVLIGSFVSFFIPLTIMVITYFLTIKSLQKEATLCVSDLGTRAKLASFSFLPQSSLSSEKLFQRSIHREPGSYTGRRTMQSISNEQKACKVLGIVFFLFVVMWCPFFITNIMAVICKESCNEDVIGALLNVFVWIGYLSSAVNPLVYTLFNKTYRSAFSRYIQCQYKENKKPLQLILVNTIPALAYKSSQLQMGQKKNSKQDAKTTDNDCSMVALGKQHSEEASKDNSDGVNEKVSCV

The pKi is the negative decadic logarithm of the Ki, by convention in mol/L. A lower pKi goes with a high Ki. On to `CCN(C)C(=O)[C@H]1C=C2c3cccc4[nH]cc(c34)C[C@H]2N(Cc2ccccc2)C1` [Compound 85a, (6aR,9S)-7-benzyl-N-ethyl-N-methyl-4,6,6a,7,8,9-hexahydroindolo[4,3-fg]quinoline-9-carboxamide], for which the figures for the microsomal CLint in the series “in vitro [1]”, in the series “in vitro [2]” and in the series “in vitro [3]” were 848 µL/min/mg, 400 µL/min/mg and 156 µL/min/mg, respectively. Besides, the half-life in “in vitro [1]” is 1.6 min; in “in vitro [2]”, 3.5 min; in “in vitro [3]”, 8.9 min. Also, on 5-HT2A receptor [4], the pKi was 6.29.
With `CCCN(CC)C(=O)[C@H]1C=C2c3cccc4[nH]cc(c34)C[C@H]2N(Cc2ccccc2)C1` [Compound 86a, (6aR,9S)-7-benzyl-N-ethyl-N-propyl-4,6,6a,7,8,9-hexahydroindolo[4,3-fg]quinoline-9-carboxamide], the results for the microsomal CLint in “in vitro [1]”, in “in vitro [2]” and in “in vitro [3]” were 1010 µL/min/mg, 330 µL/min/mg and 95.2 µL/min/mg, respectively. For the same compound, the half-life was 1.4 min in “in vitro [1]”, 4.2 min in the series “in vitro [2]” and 14.6 min in the series “in vitro [3]”. Further, the pKi at 5-HT2A receptor [4] was 6.17.
What is called pEC50 is the EC50 on a negative log10 scale, so that one unit is a factor of ten. As for `CCN(CC)C(=O)[C@H]1C=C2c3cccc4[nH]cc(c34)C[C@H]2N(CC2CCCCC2)C1` [Compound 89a, (6aR,9S)-7-(cyclohexylmethyl)-N,N-diethyl-4,6,6a,7,8,9-hexahydroindolo[4,3-fg]quinoline-9-carboxamide], the figures for the microsomal CLint in the series “in vitro [1]”, in “in vitro [2]” and in “in vitro [3]” were 743 µL/min/mg, 304 µL/min/mg and 91.5 µL/min/mg, respectively. Besides, the half-life in the series “in vitro [1]” worked out at 1.9 min; in “in vitro [2]” it was 4.6 min; in “in vitro [3]”, 15.2 min. For the same compound, the Emax on 5-HT2A receptor [5] (HEK293, agonist, HEK293, max dose, read-out: 5-HT2A % Act @ Max Dose) stood at 3.92%. The compound further showed a pEC50 at 5-HT2A receptor [5] (agonist) of under 6.00. In addition, the pKi at 5-HT2A receptor [4] was 6.68.
As for `CCN(CC)C(=O)[C@@H]1C=C2c3cccc4[nH]cc(c34)C[C@H]2N(Cc2ncco2)C1` [Compound 74, (6aR,9R)—N,N-diethyl-7-(oxazol-2-ylmethyl)-4,6,6a,7,8,9-hexahydroindolo[4,3-fg]quinoline-9-carboxamide], the results for the microsomal CLint in “in vitro [1]”, in “in vitro [2]” and in “in vitro [3]” were 83.3 µL/min/mg, 71.7 µL/min/mg and 45.5 µL/min/mg, respectively. For the same compound, the half-life was 16.6 min in “in vitro [1]”, 19.3 min in “in vitro [2]” and 30.5 min in “in vitro [3]”. Moreover, the pEC50 at 5-HT2A receptor [5] (agonist) is 6.54 and 7.26. On 5-HT2A receptor [5] (agonist, HEK293, max dose), the “5-HT2A % Act @ Max Dose” value is 63% and 89.01%. The “5-HT1A % Act @ Max Dose” value at 5-HT1A receptor was 51.28% and 82.73%. On 5-HT2A receptor [4], this compound showed a pKi of 7.28.
Regarding `CC[C@@H](C)NC(=O)[C@H]1C=C2c3cccc4[nH]cc(c34)C[C@H]2N(Cc2ccccc2)C1` [Compound 88a, (6aR,9S)-7-benzyl-N—((R)-sec-butyl)-4,6,6a,7,8,9-hexahydroindolo[4,3-fg]quinoline-9-carboxamide], the microsomal CLint was found to be 837 µL/min/mg in the series “in vitro [1]”, 830 µL/min/mg in the series “in vitro [2]” and 302 µL/min/mg in “in vitro [3]”. The results for the half-life in “in vitro [1]”, in the series “in vitro [2]” and in “in vitro [3]” were 1.7 min, 1.7 min and 4.6 min, respectively. Besides, the pKi at 5-HT2A receptor [4] was 6.72.
For `O=C([C@H]1C=C2c3cccc4[nH]cc(c34)C[C@H]2N(Cc2ccccc2)C1)N1CCCC1` [Compound 84a, ((6aR,9S)-7-benzyl-4,6,6a,7,8,9-hexahydroindolo[4,3-fg]quinolin-9-yl)(pyrrolidin-1-yl)methanone], the microsomal CLint in the series “in vitro [1]” was found to be 784 µL/min/mg; in the series “in vitro [2]”, 257 µL/min/mg; in the series “in vitro [3]”, 154 µL/min/mg. Moreover, the half-life in “in vitro [1]” came to 1.8 min; in “in vitro [2]”, 5.4 min; in the series “in vitro [3]” it was 9 min. On 5-HT2A receptor [4], this compound had a pKi of under 5.91.
Regarding `COc1cccc(CN2C[C@@H](C(=O)N3[C@@H](C)C[C@@H]3C)C=C3c4cccc5[nH]cc(c45)C[C@H]32)c1` [Compound 94a, ((2S,4S)-2,4-dimethylazetidin-1-yl)((6aR,9S)-7-(3-methoxybenzyl)-4,6,6a,7,8,9-hexahydroindolo[4,3-fg]quinolin-9-yl)methanone], the pKi on 5-HT2A receptor [4] is 5.92.
With `CCN(CC)C(=O)[C@H]1C=C2c3cccc4[nH]cc(c34)C[C@H]2N(Cc2ccc(C)cc2)C1` [Compound 97a, (6aR,9S)—N,N-diethyl-7-(4-methylbenzyl)-4,6,6a,7,8,9-hexahydroindolo[4,3-fg]quinoline-9-carboxamide], at 5-HT2A receptor [5] (agonist), the pEC50 was under 5.90. Besides, the pKi on 5-HT2A receptor [4] is under 5.91.
Turning to `COc1cccc(CN2C[C@H](C(=O)N3CCCC3)C=C3c4cccc5[nH]cc(c45)C[C@H]32)c1` [Compound 91, ((6aR,9R)-7-(3-methoxybenzyl)-4,6,6a,7,8,9-hexahydroindolo[4,3-fg]quinolin-9-yl)(pyrrolidin-1-yl)methanone], at 5-HT2A receptor [4], the pKi was 6.89.
Compound `CCN(CC)C(=O)[C@H]1C=C2c3cccc4[nH]cc(c34)C[C@H]2N(Cc2ccc(F)c(F)c2)C1` [Compound 54a, (6aR,9S)-7-(3,4-difluorobenzyl)-N,N-diethyl-4,6,6a,7,8,9-hexahydroindolo[4,3-fg]quinoline-9-carboxamide] had a pKi on 5-HT2A receptor [4] of 6.54.
`CN(C)C(=O)[C@H]1C=C2c3cccc4[nH]cc(c34)C[C@H]2N(Cc2ccccc2)C1` [Compound 102a, (6aR,9S)-7-benzyl-N,N-dimethyl-4,6,6a,7,8,9-hexahydroindolo[4,3-fg]quinoline-9-carboxamide] had a pKi on 5-HT2A receptor [4] of 6.46.
Consider `CCN(C)C(=O)[C@H]1C=C2c3cccc4[nH]cc(c34)C[C@H]2N(Cc2cccc(OC)c2)C1` [Compound 92a, (6aR,9S)—N-ethyl-7-(3-methoxybenzyl)-N-methyl-4,6,6a,7,8,9-hexahydroindolo[4,3-fg]quinoline-9-carboxamide], for which, at 5-HT2A receptor [4], the pKi is under 5.91.
As to `[2H]C(c1cccc(OC)c1)N1C[C@@H](C(=O)N(CC)CC)C=C2c3cccc4[nH]cc(c34)C[C@H]21` (stereo partly drawn) [Compound 96a, (6aR,9S)—N,N-diethyl-7-((3-methoxyphenyl)methyl-d)-4,6,6a,7,8,9-hexahydroindolo[4,3-fg]quinoline-9-carboxamide], on 5-HT2A receptor [4], the pKi is 6.00.
Still for that read-out and setting: to `[2H]C([2H])(c1cccc(OC)c1)N1C[C@@H](C(=O)N(CC)CC)C=C2c3cccc4[nH]cc(c34)C[C@H]21` [Compound 68a, (6aR,9S)—N,N-diethyl-7-((3-methoxyphenyl)methyl-d2)-4,6,6a,7,8,9-hexahydroindolo[4,3-fg]quinoline-9-carboxamide] belongs under 5.91.
As to `CCN(CC)C(=O)[C@@H]1C=C2c3cccc4[nH]cc(c34)C[C@H]2N(Cc2cnco2)C1` [Compound 75, (6aR,9R)—N,N-diethyl-7-(oxazol-5-ylmethyl)-4,6,6a,7,8,9-hexahydroindolo[4,3-fg]quinoline-9-carboxamide], the microsomal CLint in “in vitro [1]” stood at 83.1 µL/min/mg; in “in vitro [2]”, 56.3 µL/min/mg; in “in vitro [3]”, 35 µL/min/mg. Also, the half-life in “in vitro [1]” was 16.7 min; in the series “in vitro [2]” it was 24.6 min; in the series “in vitro [3]”, 39.6 min. Also, the pKi at 5-HT2A receptor [4] is 7.89.
On 5-HT2A receptor [4], `CCN(CC)C(=O)[C@H]1C=C2c3cccc4[nH]cc(c34)C[C@H]2N(Cc2cccc(C)c2)C1` [Compound 98a, (6aR,9S)—N,N-diethyl-7-(3-methylbenzyl)-4,6,6a,7,8,9-hexahydroindolo[4,3-fg]quinoline-9-carboxamide] had a pKi of 6.04.
